This is an account of results in article PMC10139140, “Synthesis of Novel 2-(Cyclopentylamino)thiazol-4(5H)-one Derivatives with Potential Anticancer, Antioxidant, and 11β-HSD Inhibitory Activities” (International Journal of Molecular Sciences, 2023).

For this assay, the target named is T1, 11β-HSD1 (Homo sapiens, UniProt P28845).
T1 construct: Human liver microsomes were used as a source of 11β-HSD1 enzyme; tissue XenoTech Lot No. 1410013; host or cells: pooled human liver microsomes, mixed gender
T1 sequence (P28845 whole entry): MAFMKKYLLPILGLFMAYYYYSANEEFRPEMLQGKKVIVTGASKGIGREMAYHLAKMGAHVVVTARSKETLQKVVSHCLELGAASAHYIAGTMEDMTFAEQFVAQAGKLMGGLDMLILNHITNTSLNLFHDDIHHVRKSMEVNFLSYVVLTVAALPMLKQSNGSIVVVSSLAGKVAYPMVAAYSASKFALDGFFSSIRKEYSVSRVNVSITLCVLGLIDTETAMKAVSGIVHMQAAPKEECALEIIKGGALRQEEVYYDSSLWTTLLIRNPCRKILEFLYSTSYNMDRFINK
The assay is described as follows: Inhibition of 11β-HSD1 (cortisone to cortisol, human liver microsomes, cortisol ELISA). The format is biochemical. As to conditions: 10 µM, 2.5 h, 37 °C. How it is done: The resulting solution with a final volume of 100 µL was incubated for 2.5 h at 37 °C. To stop the reaction, 10 µL of a 100 µM solution of 18β-glycyrrhetinic acid in PBS was added. The level of cortisol obtained in the reaction was measured by commercially available ELISA kit.
As a control, analogous tests without the addition of inhibitors were used. Half the inhibitory concentration (causing 50% reduction of cortisol or cortisone) was read from the chart.

In the case of `CC1(C)[C@@H](OC(=O)CCC(=O)O)CC[C@]2(C)[C@H]3C(=O)C=C4[C@@H]5C[C@@](C)(C(=O)O)CC[C@]5(C)CC[C@@]4(C)[C@]3(C)CC[C@@H]12` [carbenoxolone, reference compound], 10 µM produced 90.4 ± 1.86% inhibition.
